CC50 data for 13 molecules are collected here from PubChem BioAssay AID504571 (Southern Research Specialized Biocontainment Screening …, 2011).

For orientation: CC50 means the concentration at which the toxic effect on the cells reaches its halfway point.

The assay concerns human PBMC cytotoxicity, percent of cell control. Description: PBMC viability reduction by compounds – cell-based, PBMC assay companion, set 2, cytotoxicity control for HIV-1 antiviral lead project, dose response (AID 504571).
`Cc1c2c(=O)n(-c3nc4ccccc4s3)nc-2cc(O)n1Cc1ccccc1`: the CC50 was 21 µM. For the molecule `COc1ccccc1Cn1c(O)cc2nn(-c3nc4ccccc4s3)c(=O)c-2c1C`, the 50% cytotoxic concentration (CC50) was 29.6 µM. In the case of `Cc1c2c(=O)n(-c3nc4ccccc4s3)nc-2cc(O)n1Cc1ccc(F)cc1`, the half-maximal cytotoxic concentration (CC50) was 19.1 µM.

With `Cc1c2c(=O)n(-c3nc4ccccc4s3)nc-2cc(O)n1CCC(C)C`, the CC50 was 45 µM. The result for `COc1ccc(Cn2c(O)cc3nn(-c4nc5ccccc5s4)c(=O)c-3c2C)cc1` reads 19.1 µM; that for `Cc1c2c(=O)n(-c3nc4ccccc4s3)nc-2cc(O)n1Cc1cccs1`, 14.2 µM; that for `Cc1c2c(=O)n(-c3nc4ccccc4s3)nc-2cc(O)n1Cc1ccncc1`, 2.64 µM. The same measure for `COc1ccc(CCn2c(O)cc3nn(-c4nc5ccccc5s4)c(=O)c-3c2C)cc1`: 49.8 µM; for `Cc1c2c(=O)n(-c3nc4ccccc4s3)nc-2cc(O)n1C1CC1`: 5.72 µM; for `Cc1c2c(=O)n(-c3nc4ccccc4s3)nc-2cc(O)n1CCc1cccs1`: 40.8 µM. The result for `Cc1c2c(=O)n(-c3nc4ccccc4s3)nc-2cc(O)n1Cc1ccccc1Cl` reads 35.6 µM; that for `Cc1c2c(=O)n(-c3nc4ccccc4s3)nc-2cc(O)n1CCc1ccc(O)cc1`, 2.55 µM. For `Cc1c2c(=O)n(-c3nc4ccccc4s3)nc-2cc(O)n1Cc1cccnc1`, the half-maximal cytotoxic concentration (CC50) was 2.24 µM.
